The test concerns cells of the human embryonic stem cell line H1 differentiated to stage 6. Description: Immunostaining for NKX2.2 in stage 6 cultures. Particulars: 10 μM at stage 6, immunostaining; in control cultures NKX2.2+ cells distributed uniformly. The class given is cell-based. The procedure: Cells of the human embryonic stem cell line H1 (hESC H1, passage 40) were seeded as single cells at 1×10^5 cells/cm^2 on MATRIGEL™ (1:30 dilution; BD Biosciences, NJ) coated dishes in mTeSR®1 media (StemCell Technologies, Vancouver, Canada) supplemented with 10 μM of Y27632. Forty-eight hours post seeding, cultures were washed in incomplete PBS (phosphate buffered saline without Mg or Ca). Cultures were differentiated into pancreatic endoderm/endocrine lineages as follows: • a) Stage 1 (Definitive Endoderm (DE)—3 days): Cells were cultured for one day in stage 1 media (see Example 1, above). Cells were then cultured for an additional day in MCDB-131 medium supplemented with 0.1% fatty acid-free BSA, 0.0012 g/ml sodium bicarbonate, 1× GlutaMax™, 4.5 mM D-Glucose, 100 ng/ml GDF8, and 0.1 μM MCX compound. […]

The structures appear in SMILES notation.

Data on one compound can be found in patent publication US10208288B2, “Differentiation of human embryonic stem cells into pancreatic endocrine cells” (Janssen Biotech, Inc., priority 2012, dated 2019).

Turning to `CCCCCCCCCCCCC/C=C/[C@@H](O)[C@@H](N)COP(=O)(O)O` [S1P, sphingosine-1-phosphate], the “NKX2.2+ cells in endocrine clusters” value is on record as “enriched for NKX2.2+ cells”.
